This passage reports carcinogen call results from PubChem BioAssay AID1259411 (Chemical Carcinogenesis Research Information System (CCRIS), 2018).

The subject of this data set is rodent carcinogenicity bioassays, tumor incidence. The experiment in a line: CCRIS carcinogenicity studies. As to conditions: Dose: 0. In short, it runs like this:
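NCI-built, expert-reviewed records of carcinogenicity and related test outcomes (mutagenicity, tumor promotion/inhibition) compiled from published and report sources, historical span 1985-2011, not updated.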

Calls of active or inactive are those of the source. How the calls were made is not given here.

`ClCOCCOCCl`: the carcinogen call was “active; positive” (Species: MOUSE, Strain/Sex: ICR/HA SWISS/FEMALE, Route: DERMAL, 1 MG IN 0.1 ML CYCLOHEXANE 3/WK FOR 502 D (STUDY DURATION: 570 D), Tumor Site: Type of Lesion: SKIN: PAPILLOMA, SKIN: SQUAMOUS CARCINOMA); “active; positive” (Species: MOUSE, Strain/Sex: ICR/HA SWISS/FEMALE, Route: INTRAPERITONEAL, 0.3 MG IN 0.05 ML TRICAPRYLIN 1/WK FOR 546 D (STUDY DURATION: 570 D), Tumor Site: Type of Lesion: PERITONEUM: SARCOMA); “active; positive” (Species: MOUSE, Strain/Sex: ICR/HA SWISS/FEMALE, Route: SUBCUTANEOUS, 0.3 MG IN 0.05 ML TRICAPRYLIN 1/WK FOR 569 D (STUDY DURATION: 570 D), Tumor Site: Type of Lesion: INJECTION SITE: SARCOMA).

Take `O[C@H]1C=C2c3c(cccc3[C@@H]1O)-c1ccc3ccccc3c12`: the carcinogen call (Species: MOUSE, Strain/Sex: CD-1/FEMALE, Route: INTRAPERITONEAL, 0.275, 1.1 UMOL (TOTAL DOSE) ADMINISTERED OVER DAYS 1, 8, AND 15 OF LIFE (STUDY DURATION: 52 WEEKS), 0.275, 1.1 UMOL (TOTAL DOSE) ADMINISTERED OVER DAYS 1, 8, AND 15 OF LIFE (STUDY DURATION: 52 WEEKS), Tumor Site: Type of Lesion: LUNG: ALVEOLAR/BRONCHIOLAR CARCINOMA) was “active; positive” and the carcinogen call (Species: MOUSE, Strain/Sex: CD-1/MALE, Route: INTRAPERITONEAL, 0.275, 1.1 UMOL (TOTAL DOSE) ADMINISTERED OVER DAYS 1, 8, AND 15 OF LIFE (STUDY DURATION: 52 WEEKS), 0.275, 1.1 UMOL (TOTAL DOSE) ADMINISTERED OVER DAYS 1, 8, AND 15 OF LIFE (STUDY DURATION: 52 WEEKS), Tumor Site: Type of Lesion: LUNG: ALVEOLAR/BRONCHIOLAR CARCINOMA, LIVER: ADENOMA OR CARCINOMA) was “active; positive”.

As for `O[C@@H]1[C@@H](O)[C@@H](O)OC[C@H]1O`, the carcinogen call was “inactive; negative” (Species: RAT, Strain/Sex: F344/FEMALE, Route: ORAL (DIET), 2.5%, 5% FOR 104 WKS (STUDY DURATION: 104 WKS), 2.5%, 5% FOR 104 WKS (STUDY DURATION: 104 WKS)) and “inactive; negative” (Species: RAT, Strain/Sex: F344/MALE, Route: ORAL (DIET), 2.5%, 5% FOR 104 WKS (STUDY DURATION: 104 WKS), 2.5%, 5% FOR 104 WKS (STUDY DURATION: 104 WKS)).

Take `O=C(CO)CO`: the carcinogen call was “inactive; negative” (Species: MOUSE, Strain/Sex: SWISS/FEMALE, Route: DERMAL, 5, 40% AQUEOUS SOLUTION APPLIED 1/WK FOR 80 WK (STUDY DURATION: 80 WK), 5, 40% AQUEOUS SOLUTION APPLIED 1/WK FOR 80 WK (STUDY DURATION: 80 WK)) and “inactive; negative” (Species: MOUSE, Strain/Sex: SWISS/MALE, Route: DERMAL, 5%, 40% AQUEOUS SOLUTION APPLIED 1/WK FOR 80 WK (STUDY DURATION: 80 WK), 5%, 40% AQUEOUS SOLUTION APPLIED 1/WK FOR 80 WK (STUDY DURATION: 80 WK)).

Take `Nc1cc(Cl)cc(C(=O)O)c1Cl`: the carcinogen call (Species: MOUSE, Strain/Sex: B6C3F1/FEMALE, Route: ORAL, 10000, 20000 PPM IN DIET FOR 80 WK (STUDY DURATION: 91-92 WK), 10000, 20000 PPM IN DIET FOR 80 WK (STUDY DURATION: 91-92 WK), Tumor Site: Type of Lesion: LIVER: HEPATOCELLULAR CARCINOMA) is “active; positive”; the carcinogen call (Species: MOUSE, Strain/Sex: B6C3F1/MALE, Route: ORAL, 10000, 20000 PPM IN DIET FOR 80 WK (STUDY DURATION: 91-92 WK), 10000, 20000 PPM IN DIET FOR 80 WK (STUDY DURATION: 91-92 WK), Tumor Site: Type of Lesion: LIVER: HEPATOCELLULAR CARCINOMA) is “equivocal”; the carcinogen call (Species: RAT, Strain/Sex: OSBORNE-MENDEL/FEMALE, Route: ORAL, 10000, 20000 PPM IN DIET FOR 80 WK (STUDY DURATION: 112-113 WK ), 10000, 20000 PPM IN DIET FOR 80 WK (STUDY DURATION: 112-113 WK )) is “inactive; negative”; the carcinogen call (Species: RAT, Strain/Sex: OSBORNE-MENDEL/MALE, Route: ORAL, 10000, 20000 PPM IN DIET FOR 80 WK (STUDY DURATION: 112-113 WK), 10000, 20000 PPM IN DIET FOR 80 WK (STUDY DURATION: 112-113 WK)) is “inactive; negative”.

As for `Cc1ccc(S(=O)(=O)NC(=O)NN2CCCCCC2)cc1`, the carcinogen call by setting is: (Species: MOUSE, Strain/Sex: B6C3F1/FEMALE, Route: ORAL, 5000, 10000 PPM IN DIET, 5000, 10000 PPM IN DIET) “inactive; negative”; (Species: MOUSE, Strain/Sex: B6C3F1/MALE, Route: ORAL, 5000, 10000 PPM IN DIET, 5000, 10000 PPM IN DIET) “inactive; negative”; (Species: RAT, Strain/Sex: F344/FEMALE, Route: ORAL, 5000, 10000 PPM IN DIET, 5000, 10000 PPM IN DIET) “inactive; negative”; (Species: RAT, Strain/Sex: F344/MALE, Route: ORAL, 5000, 10000 PPM IN DIET, 5000, 10000 PPM IN DIET) “inactive; negative”.

On to `CNC[C@H](O)c1cccc(O)c1`, for which the carcinogen call was “inactive; negative” (Species: MOUSE, Strain/Sex: B6C3F1/FEMALE, Route: ORAL, 1250, 2500 PPM IN DIET FOR 103 WK, 1250, 2500 PPM IN DIET FOR 103 WK); “inactive; negative” (Species: MOUSE, Strain/Sex: B6C3F1/MALE, Route: ORAL, 1250, 2500 PPM IN DIET FOR 103 WK, 1250, 2500 PPM IN DIET FOR 103 WK); “inactive; negative” (Species: RAT, Strain/Sex: F344/FEMALE, Route: ORAL, 620, 1250 PPM IN DIET FOR 103 WK, 620, 1250 PPM IN DIET FOR 103 WK); “inactive; negative” (Species: RAT, Strain/Sex: F344/MALE, Route: ORAL, 620, 1250 PPM IN DIET FOR 103 WK, 620, 1250 PPM IN DIET FOR 103 WK).

On to `C#CCN1C(=O)COc2cc(F)c(N3C(=O)C4=C(CCCC4)C3=O)cc21`, for which the carcinogen call is “inactive; negative” (Species: Mouse, Strain/Sex: Crj:CD-1 (ICR)/Female (51/Group), Route: Oral, 36.6, 346.4, 859.1 mg/kg/day of 94.8% flumioxazin in diet for 78 wk, study duration 78 wk, 36.6, 346.4, 859.1 mg/kg/day of 94.8% flumioxazin in diet for 78 wk, study duration 78 wk); “inactive; negative” (Species: Mouse, Strain/Sex: Crj:CD-1 (ICR)/Male (51/Group), Route: Oral, 31.1, 314.9, 754.1 mg/kg/day of 94.8% flumioxazin in diet for 78 wk, study duration 78 wk, 31.1, 314.9, 754.1 mg/kg/day of 94.8% flumioxazin in diet for 78 wk, study duration 78 wk); “inactive; negative” (Species: Rat, Strain/Sex: Crj:CD(SD)/Female (50/Group), Route: Oral, 2.2, 21.8, 43.6 mg/kg/day of 94.8% flumioxazin in diet for up to 2 yr, study duration 2 yr, 2.2, 21.8, 43.6 mg/kg/day of 94.8% flumioxazin in diet for up to 2 yr, study duration 2 yr); “inactive; negative” (Species: Rat, Strain/Sex: Crj:CD(SD)/Male (50/Group), Route: Oral, 1.8, 18.0, 36.5 mg/kg/day of 94.8% flumioxazin in diet for up to 2 yr, study duration 2 yr, 1.8, 18.0, 36.5 mg/kg/day of 94.8% flumioxazin in diet for up to 2 yr, study duration 2 yr).

For the molecule `COc1ccc(OC)c(N=Nc2c(O)ccc3ccccc23)c1`, the carcinogen call (Species: MOUSE, Strain/Sex: C57 X 1F F1, Route: BLADDER IMPLANT, 12.5% SUSPENSION IN PARAFFIN WAX (STUDY DURATION: 40 WK), Tumor Site: Type of Lesion: BLADDER: CARCINOMA) is “active; positive”.

As for `O=C(O)C1=NN(c2ccc(S(=O)(=O)O)cc2)C(=O)C1N=Nc1ccc(S(=O)(=O)O)cc1` (stereo not given), the carcinogen call runs as follows: (Species: MOUSE, Strain/Sex: ICR/FEMALE, Route: DERMAL, 1 MG IN 0.1 ML DISTILLED WATER 2/WK FOR A MEAN TOTAL DOSE OF 133.4 MG (STUDY DURATION: 18 MO)) “inactive; negative”; (Species: MOUSE, Strain/Sex: ICR/MALE, Route: DERMAL, 1 MG IN 0.1 ML DISTILLED WATER 2/WK FOR A MEAN TOTAL DOSE OF 133.4 MG (STUDY DURATION: 18 MO)) “inactive; negative”; (Species: RAT, Strain/Sex: F344/FEMALE, Route: ORAL, 1, 2% IN DRINKING WATER FOR 104 WK (STUDY DURATION: 112 WK), 1, 2% IN DRINKING WATER FOR 104 WK (STUDY DURATION: 112 WK)) “inactive; negative”; (Species: RAT, Strain/Sex: F344/MALE, Route: ORAL, 1, 2% IN DRINKING WATER FOR 104 WK (STUDY DURATION: 112 WK), 1, 2% IN DRINKING WATER FOR 104 WK (STUDY DURATION: 112 WK)) “inactive; negative”.
